Data as given in article PMC7324419 (Human Cell, 2020).

What was measured:
[1] = test system: HT29 cell line (colorectal adenocarcinoma from human); type: cell-based; details: read-out: IC50 [µM] against HT29
[2] = test system: A549 cell line (lung carcinoma from human); type: cell-based; details: read-out: IC50 [µM] against A549
[3] = test system: EAhy926 cell line (the human umbilical vein, somatic cell hybrid); type: cell-based; details: read-out: IC50 [µM] against EA.hy9263
[4] = target: hyaluronidase from bovine testes Type I-S (Bos taurus, UniProt Q2YDK3); type: biochemical; details: read-out: IC50 (µM) hyaluronidase inhibition
Sequence of hyaluronidase from bovine testes Type I-S (Q2YDK3 36-553 limits assumed): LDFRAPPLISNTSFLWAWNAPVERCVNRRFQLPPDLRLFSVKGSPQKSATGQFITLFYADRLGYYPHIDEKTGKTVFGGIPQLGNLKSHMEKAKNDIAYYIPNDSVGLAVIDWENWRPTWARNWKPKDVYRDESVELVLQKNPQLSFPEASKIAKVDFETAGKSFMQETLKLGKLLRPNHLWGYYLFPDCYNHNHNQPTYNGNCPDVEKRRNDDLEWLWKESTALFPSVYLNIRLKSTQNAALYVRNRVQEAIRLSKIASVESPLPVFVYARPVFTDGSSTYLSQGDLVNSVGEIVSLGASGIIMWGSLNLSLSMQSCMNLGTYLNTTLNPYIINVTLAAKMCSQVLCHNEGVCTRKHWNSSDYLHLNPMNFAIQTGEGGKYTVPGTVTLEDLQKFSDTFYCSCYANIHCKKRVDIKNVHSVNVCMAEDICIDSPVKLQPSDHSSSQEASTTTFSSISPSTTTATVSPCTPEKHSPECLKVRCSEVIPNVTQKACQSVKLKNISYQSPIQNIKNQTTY

`O=C(NCCNc1c2c(nc3ccccc13)CCCC2)c1ccccc1F` [Compound 1] was tested. Which IC50 [1] did it give?
Its IC50 is 68.4 µM.

What about the IC50 [2] of the same compound?
The IC50 was 106 µM.

`O=C(NCCCNc1c2c(nc3ccccc13)CCCC2)c1ccccc1F` [Compound 2] was tested. Which IC50 [1] did it give?
Its IC50 is 50.2 µM.

And the IC50 [2]?
Its IC50 is 148 µM.

How did the IC50 [1] turn out when `O=C(NCCCNc1c2c(nc3ccccc13)CCCC2)c1cccc(F)c1` [Compound 5] was run?
Its IC50 is 44 µM.

And the IC50 [2]?
The IC50 was 118 µM.

What does the source list for `COc1cc([C@@H]2c3cc4c(cc3[C@@H](O[C@@H]3O[C@@H]5CO[C@@H](C)O[C@H]5[C@H](O)[C@H]3O)[C@H]3COC(=O)[C@H]23)OCO4)cc(OC)c1O` [Compound C1, Etoposide]?
IC50 [1]: 654 µM; IC50 [3]: 155 µM; IC50 [2]: 451 µM

Which IC50 [1] does the source give for `O=c1[nH]cc(F)c(=O)[nH]1` [Compound C2, 5-fluorouracil] here?
Its IC50 is 1630 µM.

And the IC50 [3]?
The IC50 was > 1800 µM.

What about the IC50 [2] of the same compound?
Its IC50 is > 1800 µM.

With heparin [Compound C3] as the compound, how does the IC50 [4] read?
Its IC50 is 56.4 µM.
